Data set [1] in a line: Mouse PK after subcutaneous injection. It is filed as in vivo. As to conditions: 2 mg/kg s.c., CD-1 mice, time points up to 6 h; WU derivatives compared to BARI.
The test system of another data set is CXCR3. As to the kind of experiment: CXCR3 expression in activated primary murine T cells (flow cytometry). As to conditions: anti-CD3/CD28 activated, 3 days, dose-dependent (0.32-1000 nM). It is filed as cell-based, B6 mice. The text has this:
To identify the top candidates whose effects on GvHD will be further tested in vivo, we next screened the WU derivatives by evaluating their functional inhibitory activity on the expression of CXCR3 in primary murine T cells activated by anti-CD3/CD28 beads. CXCR3 is a chemokine receptor and surrogate marker of IFNGR-JAK1/JAK2 signaling.
Figure 3 Inhibitory effect of WU derivatives on the expression of CXCR3 compared to commercially available JAK inhibitors in primary murine T cells. Primary murine T cells were isolated from B6 mice and treated with WU derivatives or known JAK inhibitors (in the order of doses of each drug from the left: 0, 0.32, 1.6, 8, 40, 200, 1000 nM) in the presence of anti-CD3/CD28 activators. After 3 days, the expression of CXCR3 on (A) CD3, (B) CD4, and (C) CD8 T cells was determined by flow cytometry.
T cells from in vitro primary murine T cell culture, fresh peripheral blood, or whole splenocytes were analyzed according to cell surface and intracellular markers. Surface markers were directly stained with flow antibodies for 20 min at 4 °C. For intracellular staining (FOXP3 and T-bet), cells were fixed and permeabilized after surface staining using appropriate buffers (One-step intracellular nuclear protein staining protocol, eBioscience, San Diego, CA, USA) and stained with flow antibodies. The antibodies used for flow cytometric analyses for mouse cells were as follows: FOXP3, T-BET, and CD183 (eBioscience, San Diego, CA, USA); CD3, H2-Kb, H2-Kd, CD4, B220, CD11b, CD11c, Ly6C, and DEC205 (BioLegend, San Diego, CA); and CD8, CD45.2, CD80, and Ly6G (BD Pharmingen, San Jose, CA, USA). All cells were run on a ZE5 Cell Analyzer (BD Biosciences, Mountain View, CA, USA) or Attune® NxT (Thermofisher Scientific, Waltham, MA, USA) and analyzed with the FlowJo software, version 10.9.0 (FlowJo LLC., Ashland, OR, USA). […]

The test system of data set [2] is phosphorylation of STAT1, STAT3, and STAT5. As to the kind of experiment: STAT phosphorylation in primary human T cells (Western blotting). It is filed as cell-based. The following applies: starvation 1 h, stimulated with 10 ng/mL IFN-α. From the text: Subsequently, we examined the ability of WU4 and WU8 to inhibit JAK signaling by measuring the levels of phosphorylation of STATs, downstream transcription factors of JAK signaling. […] This inhibitory capacity of WU4 and WU8 correlates with their IC50 values (Figure 1J) and the ability to reduce CXCR3 expression (Figure 3). We then decided to further investigate WU4 and WU8 as potent novel JAK inhibitors for the prevention of GvHD in our preclinical mouse model of allo-HCT.
Figure 4 Effect of WU4 and WU8 on the inhibition of JAK signaling in primary human T cells. STAT phosphorylation was determined as the indicator of JAK signaling. Primary human T cells were obtained from the peripheral blood of healthy donors. […] The phosphorylation of STATs was measured by Western blotting. Total […] and GAPDH served as loading controls.
(In western blotting, separated proteins are transferred to a membrane and probed.)

Another data set has as its target JAK1 (Homo sapiens, UniProt P23458). As to the kind of experiment: Z'-LYTE enzyme activity assay (SelectScreen Kinase Profiling), JAK1.
For the next data set, the target named is T1, JAK3 (Homo sapiens, UniProt P52333).
T1 sequence (P52333 1-1124): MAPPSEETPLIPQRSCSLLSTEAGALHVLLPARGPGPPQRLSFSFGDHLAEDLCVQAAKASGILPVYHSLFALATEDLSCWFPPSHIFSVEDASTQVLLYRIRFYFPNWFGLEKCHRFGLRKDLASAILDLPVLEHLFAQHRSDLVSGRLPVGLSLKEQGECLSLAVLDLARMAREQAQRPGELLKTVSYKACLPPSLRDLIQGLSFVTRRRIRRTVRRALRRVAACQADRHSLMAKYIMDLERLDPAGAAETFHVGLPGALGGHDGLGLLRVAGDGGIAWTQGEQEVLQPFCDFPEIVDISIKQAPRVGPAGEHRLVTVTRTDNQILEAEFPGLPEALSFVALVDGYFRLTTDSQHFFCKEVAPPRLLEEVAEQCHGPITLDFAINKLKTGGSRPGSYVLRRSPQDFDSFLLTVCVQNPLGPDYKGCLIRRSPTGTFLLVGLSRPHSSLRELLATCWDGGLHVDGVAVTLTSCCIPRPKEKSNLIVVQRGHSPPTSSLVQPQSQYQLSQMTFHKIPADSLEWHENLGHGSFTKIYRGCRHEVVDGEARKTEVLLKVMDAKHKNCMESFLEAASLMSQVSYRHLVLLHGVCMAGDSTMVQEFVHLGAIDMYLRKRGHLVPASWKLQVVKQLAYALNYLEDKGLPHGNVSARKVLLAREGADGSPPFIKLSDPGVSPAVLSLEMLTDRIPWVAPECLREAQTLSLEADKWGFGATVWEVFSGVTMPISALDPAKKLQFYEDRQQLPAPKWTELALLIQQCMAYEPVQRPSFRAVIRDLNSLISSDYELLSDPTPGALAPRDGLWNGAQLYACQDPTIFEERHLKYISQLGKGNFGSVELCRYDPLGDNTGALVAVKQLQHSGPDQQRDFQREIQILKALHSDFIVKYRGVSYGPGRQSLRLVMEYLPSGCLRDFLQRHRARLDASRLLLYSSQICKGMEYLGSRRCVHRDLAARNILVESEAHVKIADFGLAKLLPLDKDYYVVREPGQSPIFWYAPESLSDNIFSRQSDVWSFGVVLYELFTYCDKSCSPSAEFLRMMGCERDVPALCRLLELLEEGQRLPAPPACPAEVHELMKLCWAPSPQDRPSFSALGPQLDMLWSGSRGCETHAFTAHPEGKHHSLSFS
As to the kind of experiment: Z'-LYTE enzyme activity assay (SelectScreen Kinase Profiling), JAK3.

JAK1, sequence (P23458 whole entry): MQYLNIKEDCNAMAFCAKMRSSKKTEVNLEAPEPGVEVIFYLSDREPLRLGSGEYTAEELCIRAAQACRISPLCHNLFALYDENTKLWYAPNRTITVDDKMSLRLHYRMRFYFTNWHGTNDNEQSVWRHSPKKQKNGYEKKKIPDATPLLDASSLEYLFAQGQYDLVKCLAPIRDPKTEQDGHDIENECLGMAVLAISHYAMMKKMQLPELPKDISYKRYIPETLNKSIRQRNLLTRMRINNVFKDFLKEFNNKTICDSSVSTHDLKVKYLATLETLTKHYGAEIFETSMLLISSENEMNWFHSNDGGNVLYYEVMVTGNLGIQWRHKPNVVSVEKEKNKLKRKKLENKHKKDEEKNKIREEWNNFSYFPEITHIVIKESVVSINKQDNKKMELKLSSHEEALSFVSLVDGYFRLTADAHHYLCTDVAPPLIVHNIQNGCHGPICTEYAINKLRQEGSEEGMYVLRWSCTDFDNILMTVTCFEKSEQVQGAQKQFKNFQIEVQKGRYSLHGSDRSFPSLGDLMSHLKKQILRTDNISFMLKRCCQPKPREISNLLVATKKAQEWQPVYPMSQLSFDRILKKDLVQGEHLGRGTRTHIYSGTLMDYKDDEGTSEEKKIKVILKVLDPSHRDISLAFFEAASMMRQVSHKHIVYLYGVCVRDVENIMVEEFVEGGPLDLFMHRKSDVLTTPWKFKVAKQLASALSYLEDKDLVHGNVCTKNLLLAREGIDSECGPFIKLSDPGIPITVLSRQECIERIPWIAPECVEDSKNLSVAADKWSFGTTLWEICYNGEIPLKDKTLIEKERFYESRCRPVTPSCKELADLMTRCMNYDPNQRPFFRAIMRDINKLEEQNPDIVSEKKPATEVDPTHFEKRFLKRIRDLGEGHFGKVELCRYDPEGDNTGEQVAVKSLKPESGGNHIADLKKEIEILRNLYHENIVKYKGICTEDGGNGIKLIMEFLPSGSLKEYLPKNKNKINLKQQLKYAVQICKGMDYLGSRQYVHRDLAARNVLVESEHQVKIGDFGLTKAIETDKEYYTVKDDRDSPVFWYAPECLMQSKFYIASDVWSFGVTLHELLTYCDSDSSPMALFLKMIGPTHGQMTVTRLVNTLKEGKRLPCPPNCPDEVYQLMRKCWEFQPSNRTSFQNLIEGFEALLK

On to `N#CCC1(n2cc(-c3ncnc4[nH]ccc34)cn2)CCS(=O)(=O)CC1` [WU8], for which the “plasma drug concentration (mouse PK)” value in data set [1] is on record as “significant increase in plasma drug concentration at 2 h post-dose”. Besides, the “CXCR3 expression on T cells” value in the data set on CXCR3 is listed as “significant reductions in CXCR3 expression”. For the same molecule, the “phosphorylation of STATs” value in data set [2] was “inhibit the phosphorylation of STAT1, STAT3, and STAT5”. For the same molecule, the IC50 was 7.15 nM on JAK1 (IC50 JAK1, ATP at 1 mM); 1.07 nM on JAK1 (IC50 JAK1, ATP at app. Km); 549 nM on JAK3 (IC50 JAK3, ATP at 1 mM); 18.3 nM against JAK3 (IC50 JAK3, ATP at app. Km).
Turning to `N#CCC1(n2cc(-c3ncnc4[nH]ccc34)cn2)CC2(CC(NS(=O)(=O)C(F)(F)F)C2)C1` (stereo not shown) [WU6], the “CXCR3 expression on T cells” value in the data set on CXCR3 is recorded as “significantly downregulated”. Moreover, the IC50 against JAK1 (IC50 JAK1, ATP at 1 mM) was determined as 3.43 nM; against JAK1 (IC50 JAK1, ATP at app. Km), 0.6 nM; against JAK3 (IC50 JAK3, ATP at 1 mM) it was 311 nM; on JAK3 (IC50 JAK3, ATP at app. Km), 6.4 nM.
Take `CCS(=O)(=O)NC1CC2(C1)CC(CC#N)(n1cc(-c3ncnc4[nH]ccc34)cn1)C2` (stereo not shown) [WU4]: the “plasma drug concentration (mouse PK)” value in data set [1] is “comparable PK to BARI throughout all time points”. Further, the “CXCR3 expression on T cells” value with CXCR3 was “significant reductions in CXCR3 expression”. Further, the “phosphorylation of STATs” value in data set [2] is “inhibit the phosphorylation of STAT1, STAT3, and STAT5”. The 50% inhibitory concentration (IC50) amounted to 0.52 nM against JAK1 (IC50 JAK1, ATP at 1 mM); 0.453 nM against JAK1 (IC50 JAK1, ATP at app. Km); 84 nM on JAK3 (IC50 JAK3, ATP at 1 mM); 1.14 nM against JAK3 (IC50 JAK3, ATP at app. Km).

For orientation: IC50 means the point on the concentration scale where inhibition reaches its midpoint. Higher therefore signals weaker potency in that assay.

The values above are taken from PMC11052071, “Novel JAK Inhibitors to Reduce Graft-Versus-Host Disease after Allogeneic Hematopoietic Cell Transplantation in a Preclinical Mouse Model” (Molecules, 2024).
